# US9921212B2, “Preventive and therapeutic drug for cartilaginous hyperplasia and method of screening for the same” (KYOTO UNIVERSITY, priority 2014, dated 2018)
# Legend:
# [1] = test system: human SOX9 promoter; assay: human SOX9 promoter luciferase reporter activity in chondroprogenitor cells; assay type: cell-based; settings: mutant-type chondroprogenitor cells, 10 μM, 24 hours
# Source text: In order to examine SOX9 regulation, human SOX9 promoter activity in chondroprogenitor cells was confirmed. A reporter construct prepared by inserting a −927- to +84-bp human SOX9 promoter region (transcription start site: 0) into a pGL3-luciferase reporter plasmid (Promega) in accordance with Ushita M et al., Osteoarthritis and cartilage/OARS, Osteoarthritis Research Society. 2009; 17(8): 1065-75 was used for confirmation (FIG. 7A and Table 2). Chondroprogenitor cells obtained by the above method were seeded on a 6-well plate (50000 cells/well). A FuGENE 6 transfection reagent was used for transfection (2 μg DNA/well). Twenty four hours later, luciferase activity was determined using a Dual-Luciferase Reporter Assay Kit (Promega) and a Centro XS^3 LB 960 Microplate Luminometer (BERTHOLD) for calculation of promoter activity. […] Next, in order to identify mutation of a site responsible for NLRP3-dependent responsiveness, reporter constructs each having a mutation in an NFAT-binding sequence, an AP-1-binding sequence, an NF-κB-binding sequence, an Sp1-binding sequence, or an CREB/ATF-binding sequence were prepared as listed in Table 3. These mutated reporter constructs were transfected into chondroprogenitor cells in the above manner to confirm promoter activity. […]
# [2] = test system: SOX9; assay: mRNA expression of SOX9 in chondroprogenitor cells with forskolin and SQ22536 added; assay type: cell-based, human; settings: wild-type and mutant-type chondroprogenitor cells
# Experimental: (§1) mRNA was isolated from each cell using an RNeasy Mini Kit (Qiagen). cDNA was synthesized via reverse transcription using 1 μg of the obtained total RNA as a template and a Superscript III reverse transcriptase (Invitrogen). A standard curve for quantitative real-time PCR was created to conduct analysis. Real-time PCR analysis was conducted using a Power SYBR Green qPCR mastermix (Invitrogen) and a StepOne real-time PCR system (ABI) for quantitative determination.
# In order to examine whether or not the […] signal transduction pathway is involved in cartilaginous hyperplasia, analysis was conducted using forskolin, which is an adenylate cyclase activator, and SQ22536, which is an adenylate cyclase inhibitor. This test was conducted by introducing a human SOX9 promoter into chondroprogenitor cells, immediately treating the cells with 10 μM forskolin (CALBIOCHEM) or 10 μM SQ22536 (Sigma-Aldrich), and incubating cells for 24 hours so as to determine luciferase activity. As a result, the SOX9 promoter activity in mutant-type chondroprogenitor cells treated with forskolin increased to a level 2.3 times that of mutant-type chondroprogenitor cells (control) treated with a base (DMSO) (FIG. 7D). Meanwhile, the SOX9 promoter activity in mutant-type chondroprogenitor cells treated with SQ22536 decreased to a level half that in the control (FIG. 7D).
# [3] = test system: mutant-type chondroprogenitor cells; assay: 3D pellet culture, size of cartilaginous pellets (Alcian Blue stained area), mutant-type; assay type: cell-based, human; settings: added during 3D pellet culture
# Experimental: Chondroprogenitor cells obtained by the above method were cultured in a cartilage induction medium containing 5 ng/mL FGF2 and 10 ng/ml TGFβ3 for 3 days. Then, 2.5×10^5 cells were centrifuged to form a pellet, followed by culture in a cartilage induction medium containing 0.5 ml of 40 ng/ml PDGF-BB and 1% FCS, as in the case of 2D micromass culture. Six days later, 10 ng/ml TGFβ3 was further added for culture. Ten days later, PDGF-BB was substituted with 50 ng/ml BMP4 (WAKO). 3D pellet culture was mained at 37° C. in 5% CO2 for 28 days.
# In order to examine the chondrocytes induced via 2D micromass culture and those induced via 3D pellet culture, the cells obtained by 2D micromass culture were fixed with 4% paraformaldehyde (PFA) for 1 hour and stained with 1% Alcian Blue (pH 1.0) (Sigma-Aldrich), and the cells obtained by 3D pellet culture were fixed with 4% paraformaldehyde (PFA) for 1 hour and stained with 0.1% Alcian Blue (pH 1.0) (Sigma-Aldrich). Further, immunostaining was carried out using an anti-COL2 antibody (Thermo Scientific). Alcian blue is a reagent for detecting an extracellular matrix secreted by chondrocytes, and COL2 is a gene that is expressed in a chondrocyte-specific manner.
# Further, the influence of adenylate cyclase was examined with the addition of forskolin and SQ22536 during 3D pellet culture. […]
# [4] = test system: mutant-type iPSC-derived chondrocytes; assay: 2D micromass culture with inhibitor added, cartilaginous hyperplasia (pellet size, GAG); assay type: cell-based, human; settings: 10 μM or 1 μg/mL
# Experimental: (§2) Chondroprogenitor cells (1.5×10^5 cells) obtained via the above method were suspended in a cartilage induction medium containing 40 ng/ml PDGF-BB and 1% FCS and the suspension was spotted in the form of […] drops on a fibronectin-coated 24-well plate (BD), followed by culture. In this case, the medium was replaced every three days. Six days later, 10 ng/ml TGFβ3 was further added for culture. Ten days after the start of 2D micromass culture, PDGF-BB was substituted with 50 ng/ml BMP4 (WAKO). 2D micromass culture was performed at 37° C. in 5% CO2 for 14 days.
# Subsequently, quantitative analysis of the amount of DNA and the glycosaminoglycan production amount after chondrocyte differentiation was conducted. The amount of DNA was determined using a Pico Green dsDNA Quantitation kit (Invitrogen) in the manner described in Nasu A, et al., PloS one. 8(1): e53771 (2013). The extracellular matrix production amount was determined using Blyscan glycosaminoglycan Assay (Biocolor) in accordance with the manufacturer's protocol. As a result, no difference in the amount of DNA in chondrocytes was found between wild-type iPSC-derived cartilage tissue and mutant-type iPSC-derived cartilage tissue in both cases of 2D micromass culture and 3D pellet culture (FIGS. 3B and 3C). […]
# [5] = test system: SOX9; assay: 2D micromass culture with inhibitor added, SOX9 expression; assay type: cell-based, human; settings: 10 μM or 1 μg/mL
# Experimental: as §2, §1
# Further, 2D micromass culture was performed with the addition of 10 μM or 1 μg/mL Ac-YVAD-CHO. As a result, there was no influence in cartilaginous hyperplasia (FIGS. 6A, 6B, 6D, 6E, 6F, and 6H) or SOX9 expression (FIGS. 6C and 6G).
compound,measurement,setting,value
"Nc1ncnc2c1ncn2C1CCCO1 (stereo not shown) [SQ22536, 9-(tetrahydro-2-furanyl)-adenine]","SOX9 promoter activity, decrease relative to control treated with a base (DMSO)",[1],half
same,"effect on mRNA expression of SOX9, relation to SOX9 promoter activity data",[2],correlated
same,"size, decrease relative to control treated with a base (DMSO)",[3],2.1 times less
C=C[C@@]1(C)CC(=O)[C@]2(O)[C@@]3(C)[C@@H](O)CCC(C)(C)[C@@H]3[C@H](O)[C@H](OC(C)=O)[C@@]2(C)O1 [forskolin],"SOX9 promoter activity, increase relative to control treated with a base (DMSO)",[1],2.3 times
same,"size, increase relative to control treated with a base (DMSO)",[3],2.0 times
Ac-YVAD-CHO,influence in cartilaginous hyperplasia,[4],no influence
same,influence in SOX9 expression,[5],no influence
